Test results published in article PMC8483358 (2021).

Assays:
[1] = test system: F1174L-mutated ALK hairpin oligonucleotide (DNA, hairpin) AAATTAAACCACCAGAACATTTTTATGTTCTGGTGGTTTAATTT; experiment: SPR (Biacore X100), kinetic fit with mass transfer; conditions: 150 mM NaCl; HBS-EP: 10 mM HEPES, 3 mM EDTA, 0.005% P20, 0.1% DMSO, 25 °C
[2] = test system: ALK wild-type (WT) hairpin oligonucleotide (DNA, hairpin) AAATTCAACCACCAGAACATTTTTATGTTCTGGTGGTTGAATTT; experiment: SPR (Biacore X100), kinetic fit with mass transfer; conditions: 150 mM NaCl; HBS-EP: 10 mM HEPES, 3 mM EDTA, 0.005% P20, 0.1% DMSO, 25 °C

- KD [1]: 6.37 ± 0.41 × 10^-8 M
- KD [2]: 58.20 ± 1.62 × 10^-8 M
Compound: CC(=O)Nc1cc(C(=O)Nc2cc(C(=O)Nc3cc(C(=O)Nc4cc(C(=O)NCCC(=O)Nc5cc(C(=O)Nc6cc(C(=O)Nc7cc(C(=O)NCCCC(=O)Nc8cn(C)c(C(=O)Nc9cn(C)c(C(=O)NCCC(=O)Nc%10cn(C)c(C(=O)Nc%11cn(C)c(C(=O)Nc%12cc(C(=O)Nc%13ccc%14cc(C(=O)NCCCN(C)C)[nH]c%14c%13)n(C)c%12)n%11)n%10)n9)n8)n(C)c7)n(C)c6)n(C)c5)n(C)c4)n(C)c3)n(C)c2)n(C)c1
